Test systems include DMS 114 small cell lung; SNB-78 CNS; DLD-1 colon; KM20L2 colon; MOLT-4 leukemia; OVCAR-4 ovarian; NCI-H522 lung; SNB-75 CNS; LOX IMVI melanoma; M14 melanoma; SK-MEL-28 melanoma; MCF7 breast.
What all share (experiment): NCI tumour cell line growth inhibition, 48 h

We go through 20 compounds from PubChem BioAssay (NCI).

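Each compound was tested at five concentrations against cells in 96-well plates for 48 hours. Here, GI50 denotes the concentration required for 50% inhibition of growth. TGI: concentration producing complete growth inhibition.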 Bounds are passed on as bounds.

As for `N#CCc1cccc(CC#N)c1Br`, the TGI in the assay with DMS 114 small cell lung, with SNB-78 CNS, in the assay on DLD-1 colon, in the assay with KM20L2 colon, with MOLT-4 leukemia and in the assay with OVCAR-4 ovarian was greater than 100 µM each time. Besides, the TGI in the assay on NCI-H522 lung, in the assay with SNB-75 CNS, in the assay with LOX IMVI melanoma and in the assay on M14 melanoma was greater than 100 µM each time.
Consider `CC1(C)OC(=O)C(=C2CCC(C(=O)Nc3cccc(C(F)(F)F)c3)N2)C(=O)O1` (stereo unspecified), for which the TGI in the assay on DMS 114 small cell lung, in the assay with SNB-78 CNS, in the assay with DLD-1 colon, with KM20L2 colon, in the assay with MOLT-4 leukemia and in the assay on OVCAR-4 ovarian was greater than 100 µM throughout. Also, the TGI with NCI-H522 lung, in the assay on SNB-75 CNS, in the assay on LOX IMVI melanoma, in the assay on M14 melanoma and in the assay on SK-MEL-28 melanoma was greater than 100 µM in each case.
As to `O=c1[nH]cnc2n[nH]nc12`, the TGI in the assay with DMS 114 small cell lung is 56.1 µM; in the assay on SNB-78 CNS it was 56.7 µM; in the assay with MCF7 breast it was greater than 100 µM; in the assay on KM20L2 colon, greater than 100 µM; in the assay on MOLT-4 leukemia, 98.4 µM; in the assay with OVCAR-4 ovarian, greater than 84.8 µM. Also, the TGI in the assay on NCI-H522 lung was 53.3 µM; with SNB-75 CNS it was greater than 69.8 µM; in the assay on LOX IMVI melanoma it was greater than 49 µM; with M14 melanoma, 30.8 µM; in the assay on SK-MEL-28 melanoma, greater than 61.6 µM. In addition, the GI50 in the assay on MCF7 breast is 24 µM.
On to `CN(C)CCN1CCc2c([nH]c3ccccc23)C1c1cccnc1` (stereo unspecified), for which the TGI in the assay with DMS 114 small cell lung, in the assay on SNB-78 CNS, in the assay with DLD-1 colon, in the assay with KM20L2 colon, in the assay on MOLT-4 leukemia and in the assay with OVCAR-4 ovarian was greater than 100 µM in each case. The TGI in the assay on NCI-H522 lung, with SNB-75 CNS, in the assay on M14 melanoma and with SK-MEL-28 melanoma was greater than 100 µM throughout.
For `COc1ccc(/C=C\c2cc(OC)c(OC)c(OC)c2)cc1`, the TGI in the assay with DMS 114 small cell lung is greater than 100 µM; with DLD-1 colon it was greater than 100 µM; in the assay on MOLT-4 leukemia, 3.09 µM; in the assay on NCI-H522 lung it was 0.00151 µM; with SNB-75 CNS, 0.000932 µM; with M14 melanoma, greater than 100 µM.
`COc1ccc(/C=N/NS(=O)(=O)c2ccccc2)cc1`: the TGI with DMS 114 small cell lung, in the assay with SNB-78 CNS, in the assay with DLD-1 colon, in the assay on KM20L2 colon, with MOLT-4 leukemia and in the assay on OVCAR-4 ovarian was greater than 100 µM each time. Also, the TGI in the assay with SNB-75 CNS, with LOX IMVI melanoma, in the assay on M14 melanoma and with SK-MEL-28 melanoma was greater than 100 µM throughout.
With `Cc1ccc(S(=O)C(C)C(Cl)c2ccccc2)cc1` (stereo unspecified), the TGI in the assay on DMS 114 small cell lung, in the assay on SNB-78 CNS, in the assay on DLD-1 colon, in the assay with KM20L2 colon, in the assay on MOLT-4 leukemia and in the assay with OVCAR-4 ovarian was greater than 100 µM throughout. For the same compound, the TGI in the assay with NCI-H522 lung, in the assay on SNB-75 CNS, in the assay with LOX IMVI melanoma, in the assay with M14 melanoma and in the assay with SK-MEL-28 melanoma was greater than 100 µM in each case.
Turning to `CCCCC1(C(NC(=O)c2ccccc2Cl)c2ccncc2)C(=O)N(c2ccccc2)N(c2ccccc2)C1=O` (stereo unspecified), the TGI in the assay on DMS 114 small cell lung is greater than 100 µM; in the assay with SNB-78 CNS it was greater than 100 µM; in the assay on DLD-1 colon, greater than 100 µM; in the assay on KM20L2 colon, greater than 100 µM; in the assay on MOLT-4 leukemia, 50.3 µM; with NCI-H522 lung, greater than 100 µM. Further, the TGI in the assay with SNB-75 CNS was 71.4 µM; in the assay on LOX IMVI melanoma, greater than 100 µM; in the assay with M14 melanoma, greater than 100 µM; with SK-MEL-28 melanoma, greater than 100 µM.
Consider `Cc1cc(Cl)ccc1NC(=O)C1C(=O)N(c2ccc(Cl)cc2C)C(=O)/C1=N\NC(N)=S` (stereo unspecified), for which the TGI in the assay on DMS 114 small cell lung was 98.7 µM; in the assay with SNB-78 CNS, greater than 100 µM; in the assay on DLD-1 colon, greater than 100 µM; in the assay with KM20L2 colon, 46.8 µM; in the assay with MOLT-4 leukemia, 38 µM; in the assay on OVCAR-4 ovarian, 69.7 µM. Besides, the TGI in the assay with NCI-H522 lung is 34.4 µM; with M14 melanoma, greater than 100 µM.
Regarding `Cc1cc(C)nc(NS(=O)(=O)c2ccc(Nc3c4ccccc4nc4c(C(=O)NCCN(C)C)cccc34)cc2)n1`, the TGI with DMS 114 small cell lung came to 17.5 µM; with SNB-78 CNS it was 45.2 µM; in the assay with DLD-1 colon it was 21.7 µM; in the assay on KM20L2 colon, 20.2 µM; in the assay with MOLT-4 leukemia it was 1.61 µM; in the assay on OVCAR-4 ovarian, 11.9 µM. For the same compound, the TGI in the assay on NCI-H522 lung was found to be 4.28 µM; in the assay with SNB-75 CNS, 24.4 µM; in the assay with LOX IMVI melanoma, 11.7 µM; with M14 melanoma, 20.4 µM; in the assay with SK-MEL-28 melanoma, 20.4 µM.
As to `O=C1OC(=O)C([Se]c2ccccc2)=C1[Se]c1ccccc1`, the TGI in the assay with DMS 114 small cell lung, in the assay with SNB-78 CNS, in the assay on DLD-1 colon, with KM20L2 colon, in the assay with MOLT-4 leukemia and in the assay on OVCAR-4 ovarian was greater than 100 µM each time. Also, the TGI in the assay with NCI-H522 lung, in the assay on SNB-75 CNS, in the assay on LOX IMVI melanoma, in the assay with M14 melanoma and in the assay with SK-MEL-28 melanoma was greater than 100 µM each time.
As to `O=C1C(=O)C2(CC1S(=O)(=O)c1ccccc1)c1ccccc1-c1ccccc12` (stereo unspecified), the TGI in the assay on DMS 114 small cell lung was 53.3 µM; with SNB-78 CNS, 45.6 µM; in the assay on DLD-1 colon it was 66.1 µM; in the assay with KM20L2 colon, greater than 100 µM; in the assay on MOLT-4 leukemia, 50.5 µM; in the assay with OVCAR-4 ovarian, greater than 100 µM. For the same compound, the TGI in the assay with NCI-H522 lung is 43.1 µM; in the assay with SNB-75 CNS, greater than 100 µM; in the assay with LOX IMVI melanoma, 34.5 µM; in the assay with M14 melanoma it was 28.4 µM; with SK-MEL-28 melanoma, 35.8 µM.
Regarding `O=C(/C=C/c1ccccc1O)c1ccccc1Cl`, the TGI in the assay on DMS 114 small cell lung is 58 µM; in the assay with SNB-78 CNS it was greater than 100 µM; with DLD-1 colon it was greater than 100 µM; with KM20L2 colon, greater than 100 µM; in the assay on MOLT-4 leukemia, 84.1 µM; in the assay with OVCAR-4 ovarian it was greater than 100 µM. In addition, the TGI was 80.4 µM with NCI-H522 lung; 68.8 µM with SNB-75 CNS; 73.6 µM in the assay on LOX IMVI melanoma; greater than 100 µM in the assay with M14 melanoma; greater than 100 µM in the assay with SK-MEL-28 melanoma.
Turning to `Cc1nc2ccccc2c(=O)n1/N=C(\N=Nc1cc(Cl)ccc1Cl)c1ccccc1`, the TGI in the assay on DMS 114 small cell lung is 82.4 µM; in the assay on MCF7 breast, greater than 100 µM; in the assay on DLD-1 colon, greater than 100 µM; in the assay with KM20L2 colon, 4.47 µM; with MOLT-4 leukemia, greater than 100 µM; in the assay on OVCAR-4 ovarian, greater than 100 µM. Besides, the TGI in the assay with NCI-H522 lung is 81.7 µM; in the assay on SNB-75 CNS, 74.1 µM; in the assay with LOX IMVI melanoma it was greater than 100 µM; in the assay on M14 melanoma it was greater than 100 µM; with SK-MEL-28 melanoma, greater than 100 µM.
In the case of `COc1ccc(Br)c(C(=O)N2CCc3ccccc32)c1N`, the TGI was 79.4 µM in the assay with DMS 114 small cell lung; greater than 100 µM in the assay on SNB-78 CNS; greater than 100 µM in the assay on DLD-1 colon; greater than 100 µM in the assay with KM20L2 colon; greater than 100 µM with MOLT-4 leukemia; greater than 100 µM in the assay with OVCAR-4 ovarian. The TGI in the assay on NCI-H522 lung is 36.8 µM; with SNB-75 CNS it was 90.3 µM; in the assay with LOX IMVI melanoma it was greater than 100 µM; in the assay with M14 melanoma, greater than 100 µM; in the assay on SK-MEL-28 melanoma it was greater than 100 µM.
As for `C1=CC2CCC1CN2CCC1CNc2ccccc21` (stereo unspecified), the TGI with DMS 114 small cell lung, in the assay with SNB-78 CNS, in the assay on DLD-1 colon, in the assay with KM20L2 colon, in the assay with MOLT-4 leukemia and in the assay with NCI-H522 lung was greater than 100 µM throughout. Moreover, the TGI in the assay with SNB-75 CNS, in the assay with LOX IMVI melanoma, in the assay with M14 melanoma and with SK-MEL-28 melanoma was greater than 100 µM each time.
As for `COc1cc(OC)c2c(=O)c3cccc([N+](=O)[O-])c3n(C)c2c1`, the TGI with DMS 114 small cell lung, with SNB-78 CNS, in the assay with KM20L2 colon, in the assay on MOLT-4 leukemia, with OVCAR-4 ovarian and in the assay on NCI-H522 lung was greater than 100 µM throughout. Also, the TGI in the assay with SNB-75 CNS, in the assay on LOX IMVI melanoma, with M14 melanoma and in the assay with SK-MEL-28 melanoma was greater than 100 µM throughout.
As to `COc1cccc(/C=N\NC(=O)C(C)SC(C)C(=O)N/N=C/c2cccc(OC)c2)c1` (stereo unspecified), the TGI with DMS 114 small cell lung is 41.6 µM; in the assay with SNB-78 CNS, greater than 100 µM; in the assay with DLD-1 colon, greater than 100 µM; in the assay with KM20L2 colon, greater than 100 µM; in the assay on MOLT-4 leukemia, greater than 100 µM; with OVCAR-4 ovarian, 31.9 µM. Also, the TGI is 59.1 µM in the assay with NCI-H522 lung, 33.2 µM in the assay with SNB-75 CNS, greater than 100 µM with M14 melanoma and greater than 72.8 µM with SK-MEL-28 melanoma.
`CCN(c1ccccc1)[C@H]1C(=O)N(c2ccc([N+](=O)[O-])cc2)[C@H]1c1ccc(OC)cc1`: the TGI with DMS 114 small cell lung, in the assay on SNB-78 CNS, in the assay on DLD-1 colon, with MOLT-4 leukemia, in the assay with NCI-H522 lung and in the assay on SNB-75 CNS was greater than 100 µM each time. In the assay with SK-MEL-28 melanoma, this compound gave a TGI greater than 100 µM.
`Cc1ccc2ccc(-c3ccccc3)c3c2c1C(=O)c1ccccc1C3=O`: the TGI in the assay with DMS 114 small cell lung, in the assay on SNB-78 CNS, in the assay with DLD-1 colon, in the assay with KM20L2 colon, with MOLT-4 leukemia and with NCI-H522 lung was greater than 100 µM throughout. In addition, the TGI is 68.7 µM in the assay on SNB-75 CNS, greater than 100 µM with LOX IMVI melanoma, greater than 100 µM in the assay on M14 melanoma and greater than 100 µM with SK-MEL-28 melanoma.
